The record followed here is US20160138113A1, “METHODS AND COMPOSITIONS FOR THE DIAGNOSIS, PROGNOSIS AND TREATMENT OF BRAIN METASTASIS” (MEMORIAL SLOAN-KETTERING CANCER CENTER, priority 2013, published 2016).

This data set has as its system CTSS. In words: shRNA-mediated CTSS knockdown in Br-M cells (qPCR, western blot). The data set is classed as cell-based, human. From the text: Five shRNA sequences targeting CTSS were obtained from the RNAi Codex and RNAi Consortium. shRNA sequences were inserted into the targeting hairpin sequence for the pRetroSuper vector. Correct insertion into the vector was verified by digestion and sequencing of the vector. Plasmids with the correct shRNA targeting sequence were transfected into H29 viral packaging cells. Viral particles were concentrated from the H29 cell supernatant, added to the target cells in the presence of polybrene and cells were selected with puromycin. One of the […] shRNAs (CTSS shRNA: GATAAAGTTTGCTAAGTAA—TTACTTAGCAAACTTTATC) was used for subsequent experiments to target CTSS with 90% KD efficiency. A non-targeting shRNA [CGCCATAAATATAACTTTA—TAAAGTTATATTTATGGCG] was used as control.
RNA was isolated with Trizol, DNase treated, and 0.2 μg of RNA was used for cDNA synthesis. Details about the Taqman assays can be found in Table 4. […]
Conditioned media (CM) from Br-M cell lines was generated by incubating confluent cell layers in serum-free DMEM media for 24 hours. […] Protein was quantified using the BCA assay (Pierce). […] Membranes were probed with antibodies as indicated in Table 5 and detected using the appropriate HRP-conjugated secondary antibodies using chemoluminescence detection (Millipore). Bands from western blots were quantified in the dynamic range using the Gel analysis module in ImageJ software.
A general note: Real-time PCR tracks product formation cycle by cycle.

Regarding “CTSS shRNA: shRNA targeting CTSS: GATAAAGTTTGCTAAGTAA—TTACTTAGCAAACTTTATC, in pRetroSuper vector (loop; in pRetroSuper vector)”, the “CTSS KD efficiency” value is given as 90%.
